Measured values as given in patent US9309261B2, “Spirooxindole derivative and process for producing the same” (OKINAWA INSTITUTE OF SCIENCE AND TECHNOLOGY SCHOOL …, priority 2012, dated 2016).

Legend:
[1] = tested on: tumor cells in which both WNT and KRas signaling pathways are activated; assay: Selective lethality to tumor cells with activated WNT and KRas signaling; format: cell-based
[2] = Cytotoxicity: K562 cell growth inhibition (Cell Counting Kit-8, WST-8); format: cell-based; details: human, K562 cells
Description: K562 cells (American Type Culture Collection) were cultured in a culture medium containing 10% (v/v) fetal calf serum (FCS) (manufactures by Sigma) to logarithmic phase. The cells were seeded in 96-well microtiter plate at a density of 5000 cells/well in 100 μL cell culture medium and incubated at 37° C. and 5% CO2 in a humidified incubator overnight. The test compounds of various concentrations were added in a well at 10 fold concentration in 1/10 volume of medium without FCS. After 6-48 hrs incubation at 37° C. in the CO2 incubator, 10 μL solution of the viable cell counting reagent, Cell counting Kit-8 (5 mmol/L WST-8, 0.2 mmol/L 1-Methoxy PMS, 150 mmol/L NaCl) (manufactured by Dojindo) was added to each well, and reacted for 1 to 4 hours in the CO2 incubator. After the incubation, an absorbance of formazan, generated by reduction of WST-8 was determined at 450 nm using a microplate reader.
The assay readout is correlated with the viable cell numbers. Small values correspond to high inhibition and larger values to low inhibition of the cell growth. To determine IC50 values (i.e. the concentration inhibiting the cell growth by 50%) of the compound of formula I, several assays were made with a range of concentrations chosen empirically to give low, high and intermediate inhibition of the growth and determined using the curve fitting software.
IC50 values can be converted logarithmically to pIC50 values (−log IC50), in which higher values indicate exponentially greater potency. The IC50 value is not an absolute value but depends on experimental conditions e.g. concentrations employed.

[3] = molecular target: T1, Hexokinase-II (HK-II) (Homo sapiens, UniProt P52789); assay: Hexokinase 2 inhibition (Transcreener ADP2 assay); format: biochemical; details: read-out: HK-II Inhibition ADP-FP (% inhibition at 20 μM)
T1 sequence (P52789 1-917): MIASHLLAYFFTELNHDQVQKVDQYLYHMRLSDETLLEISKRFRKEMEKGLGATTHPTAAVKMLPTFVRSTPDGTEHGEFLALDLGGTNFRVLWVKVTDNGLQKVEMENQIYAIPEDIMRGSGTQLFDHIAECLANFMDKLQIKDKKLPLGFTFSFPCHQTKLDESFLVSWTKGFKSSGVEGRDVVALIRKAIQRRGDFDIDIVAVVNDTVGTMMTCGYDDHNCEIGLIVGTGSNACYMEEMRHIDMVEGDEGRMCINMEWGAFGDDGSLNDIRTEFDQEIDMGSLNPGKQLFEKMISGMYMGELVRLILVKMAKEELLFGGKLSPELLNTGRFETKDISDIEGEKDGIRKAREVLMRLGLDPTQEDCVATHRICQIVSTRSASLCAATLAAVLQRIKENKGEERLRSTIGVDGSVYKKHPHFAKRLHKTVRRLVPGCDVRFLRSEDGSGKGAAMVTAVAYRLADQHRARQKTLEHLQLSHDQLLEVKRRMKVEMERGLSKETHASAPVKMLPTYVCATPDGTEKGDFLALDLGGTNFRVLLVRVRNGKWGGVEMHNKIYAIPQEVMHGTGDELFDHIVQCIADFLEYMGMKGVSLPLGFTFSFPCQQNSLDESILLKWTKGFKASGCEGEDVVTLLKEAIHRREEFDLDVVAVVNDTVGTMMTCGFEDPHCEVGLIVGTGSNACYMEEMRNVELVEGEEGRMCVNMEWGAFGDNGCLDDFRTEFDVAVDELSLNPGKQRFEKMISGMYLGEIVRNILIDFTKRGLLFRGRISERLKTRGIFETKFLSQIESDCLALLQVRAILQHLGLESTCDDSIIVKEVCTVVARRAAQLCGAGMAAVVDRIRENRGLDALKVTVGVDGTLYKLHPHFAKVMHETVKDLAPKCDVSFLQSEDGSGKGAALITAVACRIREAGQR
Source text: It is well known that tumor cells mainly rely on glycolysis for energy generation and intermediary metabolism, a phenomenon known as the Warburg effect. Hexokinase-II (HK-II), a key enzyme of glycolysis, catalyzes the first step in the conversion of glucose to glucose-6-phosphate. HK-II is highly expressed in many types of tumors and its expression is correlated with glucose uptake, tumor aggressiveness, and poor survival prognosis. Inhibition of HK-II activity attenuates tumor cell growth and induces apoptosis.
The test compounds were added to a typical reaction mixture of HK-II, and the produced ADP concentrations were determined using Transcreener® ADP^2 FI Assay (BellBrook Labs, Madison, Wis., USA).

SMILES: CCC[C@@H]1CC(=O)C[C@@]2(O1)C(=O)Nc1cccc(Cl)c12 [Compound 3ab, (2′S,6′R)-4-chloro-6′-propyl-5′,6′-dihydrospiro[indoline-3,2′-pyran]-2,4′(3′H)-dione]
- activity selectively lethal to tumor cells in which both WNT and KRas signaling pathways are activated [1]: selectively lethal
- IC50 ([2]; sample with no ee given): 15 µM

SMILES: CCC[C@@H]1CC(=O)C[C@@]2(O1)C(=O)Nc1cccc(Br)c12 [Compound 3ac, (2′S,6′R)-4-bromo-6′-propyl-5′,6-dihydrospiro[indoline-3,2′-pyran]-2,4′(3′H)-dione]
- activity selectively lethal to tumor cells in which both WNT and KRas signaling pathways are activated [1]: selectively lethal
- IC50 ([2]; sample of 82% ee): 16 µM

SMILES: O=C1C[C@@H](CCN2C(=O)c3ccccc3C2=O)O[C@]2(C1)C(=O)Nc1ccccc12 [Compound 3ga, (2′S,6′R)-6′-(2-(1,3-dioxoisoindolin-2-yl)ethyl)-5′,6′-dihydrospiro[indoline-3,2′-pyran]-2,4′(3′H)-dione]
- IC50 ([2]; sample of 91% ee): 113 µM
- melting point: 199 to 201 °C

SMILES: CCC[C@@H]1CC(=O)C[C@@]2(O1)C(=O)Nc1cc(Cl)ccc12 [Compound 3af, (2′S,6′R)-6-chloro-6′-propyl-5′,6′-dihydrospiro[indoline-3,2′-pyran]-2,4′(3′H)-dione]
- activity selectively lethal to tumor cells in which both WNT and KRas signaling pathways are activated [1]: selectively lethal
- IC50 ([2]; sample with no ee given): 21 µM

SMILES: C=CC[C@@]1(O)C[C@@H](CCC)O[C@]2(C1)C(=O)Nc1ccccc12 [Compound 7, (2′S,4′R,6′R)-4′-allyl-4′-hydroxy-6-propyl-3′,4′,5′,6-tetrahydrospiro[indoline-3,2′-pyran]-2-one]
- IC50 ([2]; sample of 87% ee): > 212 µM
- IC50 ([2]; sample with no ee given): > 212 µM
- melting point: 189 to 191 °C

SMILES: CCC[C@@H]1CC(=O)C[C@@]2(O1)C(=O)Nc1ccccc12 [Compound 3aa, (2′S,6′R)-6′-Propyl-5′,6′-dihydrospiro[indoline-3,2′-pyran)-2,4′(3′H)-dione]
- IC50 ([2]; sample of 99% ee): 130 µM
- IC50 ([2]; sample with no ee given): 125 µM
- melting point: 118 to 120 °C

SMILES: CCC[C@@H]1C/C(=N/NS(=O)(=O)c2ccc(C)cc2)C[C@@]2(O1)C(=O)Nc1ccccc12 (stereo in doubt)
- melting point: 197 to 199 °C

SMILES: CCC[C@@H]1CC(=O)C[C@@]2(O1)C(=O)Nc1ccc(Br)cc12 [Compound 3ae, (2′S,6′R)-5-bromo-6′-propyl-5′,6′-dihydrospiro[indoline-3,2′-pyran]-2,4′(3′H)-dione]
- activity selectively lethal to tumor cells in which both WNT and KRas signaling pathways are activated [1]: selectively lethal
- IC50 ([2]; sample with no ee given): 20 µM

SMILES: CCC[C@@H]1C[C@@H](O)C[C@@]2(O1)C(=O)Nc1ccccc12 [Compound 5, (2′S,4′R,6′R)-4′-hydroxy-6′-propyl-3′,4′,5′,6′-tetrahydrospiro[indoline-3,2′-pyran]-2-one]
- IC50 ([2]; sample of 92% ee): > 245 µM
- IC50 ([2]; sample with no ee given): > 245 µM
- melting point: 169 to 171 °C

SMILES: O=C1C[C@H](c2ccccc2)O[C@@]2(C1)C(=O)Nc1ccccc12 [Compound 3ja, (2′R,6′R)-6′-phenyl-5′,6′-dihydrospiro[indoline-3,2′-pyran]-2,4′(3′H)-dione]
- activity selectively lethal to tumor cells in which both WNT and KRas signaling pathways are activated [1]: selectively lethal
- inhibition at 20 µM [3]: 33.8%

SMILES: CCC[C@@H]1C[C@@H](NCc2ccccc2)C[C@@]2(O1)C(=O)Nc1ccccc12 [Compound 6, (2′S,4′R,6′R)-4′-(benzylamino)-6-propyl-3′,4′,5′,6-tetrahydrospiro[indoline-3,2′-pyran]-2-one]
- inhibition at 20 µM [3]: 37.7%
